These results are taken from ChEMBL document CHEMBL1121905, “erythro-5-[1-Hydroxy-2-(isopropylamino)butyl]-7-hydroxycarbostyril, a terbutaline-type derivative of the bronchodilator procaterol” (1981).

The species entered for assay [1] is Cavia porcellus. Put plainly: Compound was tested for effective dose required for 25% of maximum response in guinea pig right atrium.
The species named for assay [2] is Cavia porcellus. Put plainly: Compound was tested for effective dose required for 50% of maximum response in guinea pig trachea. Format: functional. The following applies: read-out: ED50 (the source's name).
For assay [3], the species on record is Cavia porcellus. Put plainly: Intrinsic activity (n=5) in guinea pig right atrium.
For assay [4], the species on record is Cavia porcellus. Put plainly: Intrinsic activity in guinea pig trachea. Format: functional.
Assay [5] relates to Canis familiaris. Put plainly: Compound was tested in anesthetized dogs for increase in heart rate (equipotent dose at ED25) Mean ED25 value, obtained at a dose of 0.021 ug/kg. In kind it is functional. The conditions noted are these: Canis lupus familiaris.
The test system of assay [6] is Canis familiaris. Put plainly: Compound was tested in anesthetized dogs for inhibition of bronchoconstriction (equipotent dose at ED50) Mean ED50 value, obtained at a dose of 0.054 ug/kg. Format: functional. The conditions noted are these: Canis lupus familiaris, Lung.
For assay [7], the species on record is Cavia porcellus. Put plainly: Compound was tested for effective dose required for 25% of maximum response in guinea pig right atrium; maximal activity was obtained at 1 x 10 e-5 mol/L.

In assay [1], `CCC(NC(C)C)C(O)c1cc(O)cc2c1CCC(=O)N2` (configuration not stated) gave an ED25 of 0.566 µM. In assay [2], the EC50 was found to be 1.22 µM. The Intrinsic activity worked out at 0.27 in assay [3] and 0.6 in assay [4].

By ED50 is commonly meant the dose at which the effect has come halfway, by size or by number of responders. A lower ED50 goes with an effect at a small dose. In assay [5], `CC(C)NCC(O)c1ccc(O)c(O)c1` (configuration not stated) [ISOPROTERENOL] came in with an ED25 of 0.001 mg/kg. Further, the ED50 in assay [6] was 0.001 mg/kg.

Turning to `CCC(NC(C)C)C(O)c1ccc(O)c2[nH]c(=O)ccc12` (configuration not stated) [PROCATEROL], in assay [1], the ED25 was found to be 0.0057 µM. In assay [2], the EC50 is 0.011 µM. The Intrinsic activity in assay [3] amounted to 0.6; in assay [4], 0.98.

Turning to `CC(C)(C)NCC(O)c1cc(O)cc(O)c1` (configuration not stated) [TERBUTALINE], the Intrinsic activity in assay [3] turned out to be 0.73; in assay [4], 0.7.

Regarding `CCC(NC(C)C)C(O)c1cc(O)cc2nc(O)ccc12` (configuration not stated), the EC50 in assay [2] came to 0.225 µM. The ED25 result in assay [7] is “maximal activity was obtained at 1 x 10 e-5 mol/L”; in assay [5], 0.0871 mg/kg. This molecule also returned an ED50 in assay [6] of 0.0417 mg/kg. Besides, the Intrinsic activity in assay [4] was determined as 0.5.
